Test: clinical
Conditions: human, in vivo

| Compound | CL renal [mL/min/kg] |
| --- | --- |
| CCCNC(=O)NS(=O)(=O)c1ccc(Cl)cc1 [CHLORPROPAMIDE] | 0.01 |
| CCN(CC)CCNC(=O)c1cc(Br)c(N)cc1OC [BROMOPRIDE] | 1.4 |
| c1ccc(C2(N3CCCCC3)CCCCC2)cc1 [PHENCYCLIDINE] | 0.82 |
| Nc1nc(O)c2ncn(COC(CO)CO)c2n1 [GANCICLOVIR] | 4.14 |
| CCc1nn(CCCN2CCN(c3cccc(Cl)c3)CC2)c(=O)n1CCOc1ccccc1 [NEFAZODONE] | 0.38 |
| C[C@H]1c2cccc(O)c2C(=O)C2=C(O)[C@]3(O)C(=O)C(C(N)=O)=C(O)[C@@H](N(C)C)[C@@H]3[C@@H](O)[C@@H]21.O [DOXYCYCLINE] | 0.19 |
| CC(C)NCC(O)COc1ccc(CCOCC2CC2)cc1 (stereo not given) [BETAXOLOL] | 0.7 |
| CC(C)NCC(O)COc1cccc2ccccc12 (stereo not given) [PROPRANOLOL] | 1.2 |
| CCCC(C)C1(CC)C(=O)NC(=S)NC1=O (stereo not given) [THIOPENTAL] | 0.08 |
| COc1ccc2c(c1)c(CC(=O)O)c(C)n2C(=O)c1ccc(Cl)cc1 [INDOMETHACIN] | 0.2 |
| C[C@@H](O)[C@H]1C(=O)N2C(C(=O)O)=C(S[C@H]3C[C@@H](C(=O)N4CC[C@H](NC(=O)CNC(=N)N)C4)N(C)C3)[C@H](C)[C@H]12 [TOMOPENEM] | 1.14 |
| CC(C)(C)NCC(O)COc1cccc2c1CC(O)C(O)C2 (stereo not given) [NADOLOL] | 1.8 |
| Nc1ccn([C@@H]2O[C@H](CO)[C@@H](O)C2(F)F)c(=O)n1 [GEMCITABINE] | 3.2 |
| O.O=P(O)(O)C(O)(Cn1ccnc1)P(=O)(O)O [ZOLEDRONIC ACID] | 0.79 |
| COc1cccc(OC)c1C(=O)N[C@@H]1C(=O)N2[C@@H]1SC(C)(C)[C@@H]2C(=O)O [METHICILLIN] | 4.2 |
| CCOc1cc(CC(=O)N[C@@H](CC(C)C)c2ccccc2N2CCCCC2)ccc1C(=O)O [REPAGLINIDE] | 0.12 |
| CC(CC(c1ccccc1)c1ccccc1)NC(C)(C)C (stereo not given) [TERODILINE] | 0.14 |
| CSc1ccc(C(=O)c2[nH]c(=O)[nH]c2C)cc1 [ENOXIMONE] | 0.1 |
| CC[C@@]1(O)C(=O)OCc2c1cc1n(c2=O)Cc2cc3c(CN(C)C)c(O)ccc3nc2-1 [TOPOTECAN] | 5.2 |
| CO[C@H]1/C=C/O[C@@]2(C)Oc3c(C)c(O)c4c(c3C2=O)C2=NC3(CCN(CC(C)C)CC3)NC2=C(NC(=O)/C(C)=C\C=C\[C@H](C)[C@H](O)[C@@H](C)[C@@H](O)[C@@H](C)[C@H](OC(C)=O)[C@@H]1C)C4=O [RIFABUTIN] | 0.4 |
| CS(=O)(=O)OCCCCOS(C)(=O)=O [BUSULFAN] | 0.2 |
| COc1ccc(CCNCC(O)COc2cccc(C)c2)cc1OC (stereo not given) [BEVANTOLOL] | 0.06 |

| Compound | CL renal [mL/min/kg] |
| --- | --- |
| CC(C)[C@H]1CC[C@H](C(=O)N[C@H](Cc2ccccc2)C(=O)O)CC1 [NATEGLINIDE] | 0.1 |
| NC12CC3CC(CC(C3)C1)C2 [AMANTADINE] | 4.8 |
| CC(=O)N[C@H]1[C@H]([C@H](O)[C@H](O)CO)OC(C(=O)O)=C[C@@H]1N=C(N)N [ZANAMIVIR] | 1.39 |
| CCOC(=O)C1(c2ccccc2)CCC=CC1N(C)C (stereo not given) [TILIDINE] | 0.26 |
| CC(C)(O/N=C(\C(=O)N[C@@H]1C(=O)N2C(C(=O)[O-])=C(C[n+]3ccccc3)CS[C@H]12)c1csc(N)n1)C(=O)O [CEFTAZIDIME] | 2.13 |
| Cc1onc(-c2c(F)cccc2Cl)c1C(=O)N[C@@H]1C(=O)N2[C@@H]1SC(C)(C)[C@@H]2C(=O)O [FLOXACILLIN] | 1.56 |
| CN(C)CCC=C1c2ccccc2COc2ccccc21 [DOXEPIN] | 0.12 |
| CCCCc1ncc(/C=C(\Cc2cccs2)C(=O)O)n1Cc1ccc(C(=O)O)cc1 [EPROSARTAN] | 0.7 |
| CC1=C(C(=O)O)N2C(=O)[C@@H](NC(=O)[C@H](N)C3=CCC=CC3)[C@H]2SC1 [CEPHRADINE] | 3.14 |
| Clc1ccc2nsnc2c1NC1=NCCN1 [TIZANIDINE] | 0.33 |
| Cc1cccc(N2CC(CO)OC2=O)c1 (stereo not given) [TOLOXATONE] | 0.11 |
| Oc1ccc2c3c1O[C@H]1[C@@H](O)CC[C@@]4(O)[C@@H](C2)N(CC2CCC2)CC[C@]314 [NALBUPHINE] | 0.95 |
| CC1(C)S[C@@H]2[C@H](NC(=O)Cc3ccccc3)C(=O)N2[C@H]1C(=O)O [PENICILLIN G] | 5 |
| COc1nc(C)nc(Cl)c1N=C1NCCN1 [MOXONIDINE] | 7.5 |
| NNc1nncc2ccccc12 [HYDRALAZINE] | 10.8 |
| O=P(O)(O)C(O)(Cc1cccnc1)P(=O)(O)O [RISEDRONIC ACID] | 1.31 |
| OC(Cn1cncn1)(Cn1cncn1)c1ccc(F)cc1F [FLUCONAZOLE] | 0.23 |
| CCC1(c2ccccc2)C(=O)NC(=O)NC1=O [PHENOBARBITAL] | 0.02 |
| O=C1CN=C(c2ccccc2)c2cc([N+](=O)[O-])ccc2N1 [NITRAZEPAM] | 0.01 |
| CN1C(=O)NC(=O)C(C)(C2=CCCCC2)C1=O (stereo not given) [HEXOBARBITAL] | 0.02 |
| c1ccc(C2(c3ccccc3)CC2C2=NCCN2)cc1 (stereo not given) [CIFENLINE] | 4.2 |
| CC[C@]1(O)C[C@@H]2CN(CCc3c([nH]c4ccccc34)[C@@](C(=O)OC)(c3cc4c(cc3OC)N(C)[C@H]3[C@@](O)(C(=O)OC)[C@H](OC(C)=O)[C@]5(CC)C=CCN6CC[C@]43[C@@H]65)C2)C1 [VINBLASTINE] | 2.64 |

| Compound | CL renal [mL/min/kg] |
| --- | --- |
| Nc1nc(Cl)nc2c1ncn2[C@H]1C[C@H](O)[C@@H](CO)O1 [CLADRIBINE] | 3.92 |
| C[C@]12C=CC(=O)C=C1CC[C@@H]1[C@@H]2[C@@H](O)C[C@@]2(C)[C@H]1CC[C@]2(O)C(=O)CO [PREDNISOLONE] | 0.6 |
| C[C@](N)(Cc1ccc(O)c(O)c1)C(=O)O [METHYLDOPA] | 2.1 |
| Cc1cccc(C)c1NC(=O)NCCCNC(C)C | 2.3 |
| N#Cc1ccc(C(c2ccc(C#N)cc2)n2cncn2)cc1 [LETROZOLE] | 0.02 |
| O=C1CN=C(c2ccccn2)c2cc(Br)ccc2N1 [BROMAZEPAM] | 0.26 |
| Nc1nc(NC2CC2)c2ncn([C@H]3C=C[C@@H](CO)C3)c2n1 [ABACAVIR] | 0.15 |
| O=C1c2c(O)ccc(O)c2C(=O)c2c(NCCNCCO)ccc(NCCNCCO)c21 [MITOXANTRONE] | 0.5 |
| COc1c(N2CCNC(C)C2)c(F)cc2c(=O)c(C(=O)O)cn(C3CC3)c12 (stereo not given) [GATIFLOXACIN] | 2.3 |
| Cc1cccc(Nc2ccncc2S(=O)(=O)NC(=O)NC(C)C)c1 [TORSEMIDE] | 0.13 |
| CCNCC(O)c1cccc(O)c1 (stereo not given) [ETILEFRINE] | 3.96 |
| CO/N=C(\C(=O)N[C@@H]1C(=O)N2C(C(=O)O)=C(CSc3nc(=O)c(=O)[nH]n3C)CS[C@H]12)c1csc(N)n1 [CEFTRIAXONE] | 0.12 |
| O=P1(NCCCl)OCCCN1CCCl (stereo not given) [IFOSFAMIDE] | 0.58 |
| NC[C@H]1O[C@H](O[C@H]2[C@H](O)[C@@H](O[C@H]3O[C@H](CO)[C@@H](O)[C@H](N)[C@H]3O)[C@H](N)C[C@@H]2N)[C@H](N)C[C@@H]1O [TOBRAMYCIN] | 1.19 |
| CCOC(=O)Nc1ccc(NCc2ccc(F)cc2)nc1N [FLUPIRTINE] | 0.27 |
| C[C@@H]1C[C@H]2[C@@H]3CCC4=CC(=O)C=C[C@]4(C)[C@@]3(F)[C@@H](O)C[C@]2(C)[C@@]1(O)C(=O)CO [DEXAMETHASONE] | 0.09 |
| CC(CCc1ccccc1)NCC(O)c1ccc(O)c(C(N)=O)c1 (stereo not given) [LABETALOL] | 0.92 |
| C[C@H](N[C@@H](CCc1ccccc1)C(=O)O)C(=O)N1CCC[C@H]1C(=O)O [ENALAPRILAT ANHYDROUS] | 1.6 |
| Nc1ccc(S(=O)(=O)c2ccc(N)cc2)cc1 [DAPSONE] | 0.05 |
| Nc1cc(-c2ccncc2)c[nH]c1=O [INAMRINONE] | 3.1 |
| COc1ccc2c3c1O[C@H]1C[C@@H](O)C=C[C@@]31CCN(C)C2 [GALANTAMINE] | 1.57 |
| CCO[C@@H](Cc1ccc(OCCc2ccc(OS(C)(=O)=O)cc2)cc1)C(=O)O [TESAGLITAZAR] | 0.01 |

| Compound | CL renal [mL/min/kg] |
| --- | --- |
| CN[C@@H]1CCc2[nH]c3ccc(C(N)=O)cc3c2C1 [FROVATRIPTAN] | 1.04 |
| Nc1ccc(S(=O)(=O)Nc2ncccn2)cc1 [SULFADIAZINE] | 0.34 |
| Nc1ncn([C@H]2C[C@H](O)[C@@H](CO)O2)c(=O)n1 [DECITABINE] | 1.3 |
| OCCN1C[C@H](O)[C@@H](O)[C@H](O)[C@H]1CO [MIGLITOL] | 1.7 |
| Cc1nnc2n1-c1ccc(Cl)cc1C(c1ccccc1)=NC2 [ALPRAZOLAM] | 0.15 |
| CC(C)NCC(O)COc1ccc(COCCOC(C)C)cc1 (stereo not given) [BISOPROLOL] | 2.28 |
| C[C@H]1C[C@H]2[C@@H]3CCC4=CC(=O)C=C[C@]4(C)[C@@]3(F)[C@@H](O)C[C@]2(C)[C@@]1(O)C(=O)CO [BETAMETHASONE] | 0.14 |
| CN1Cc2c(N)cccc2C(c2ccccc2)C1 (stereo not given) [NOMIFENSINE] | 12.5 |
| C[C@H]1O[C@@H](O[C@H]2[C@@H](O)C[C@H](O[C@H]3[C@@H](O)C[C@H](O[C@H]4CC[C@@]5(C)[C@H](CC[C@@H]6[C@@H]5C[C@@H](O)[C@]5(C)[C@@H](C7=CC(=O)OC7)CC[C@]65O)C4)O[C@@H]3C)O[C@@H]2C)C[C@H](O)[C@@H]1O [DIGOXIN] | 1.7 |
| COc1cccc2c1C(=O)c1c(O)c3c(c(O)c1C2=O)C[C@@](O)(C(=O)CO)C[C@@H]3O[C@H]1C[C@H](N)[C@H](O)[C@H](C)O1 [DOXORUBICIN] | 1.83 |
| CC1(C)S[C@@H]2[C@H](NC(=O)COc3ccccc3)C(=O)N2[C@H]1C(=O)O [PENICILLIN V] | 1.74 |
| CCC1(c2cccc(O)c2)CCCCN(C)C1 (stereo not given) [MEPTAZINOL] | 1.4 |
| CN(C)CCCN1c2ccccc2CCc2cc(O)ccc21 [2-HYDROXYIMIPRAMINE] | 0.3 |
| CC(C)(C)NC(=O)[C@H]1CC[C@H]2[C@@H]3CC[C@H]4NC(=O)C=C[C@]4(C)[C@H]3CC[C@]12C [FINASTERIDE] | 0.02 |
| Cc1ccccc1N1C(=O)c2cc(S(N)(=O)=O)c(Cl)cc2NC1C (stereo not given) [METOLAZONE] | 1.12 |
| Cn1nnnc1SCC1=C(C(=O)O)N2C(=O)[C@@H](NC(=O)[C@H](O)c3ccccc3)[C@H]2SC1 [CEFAMANDOLE] | 2.7 |
| CCCc1cc(=O)[nH]c(=S)[nH]1 [PROPYLTHIOURACIL] | 0.04 |
| C=C1CC[C@@]2(O)[C@H]3Cc4ccc(O)c5c4[C@@]2(CCN3CC2CC2)[C@H]1O5 | 0.75 |
| CN1C2CCCC1CC(NC(=O)c1nn(C)c3ccccc13)C2 (stereo not given) [GRANISETRON] | 1 |
